Source: patent US20070128217A1 (priority 2003, published 2007)

Assays:
[1] = system: control sera (pooled serum of ten healthy LUMC hospital workers; commercial negative donor pooled serum from the Dutch bloodbank); assay type: binding, human; parameters: Binding of Control serum LUMC to linear peptides / Binding of Control serum Blood-bank to linear peptides / Binding of Control serum LUMC to looped peptides / Binding of Control Serum Blood-Bank to Looped peptides / Binding of Control serum LUMC to linear peptides of the protein M of SARS-CoV Urbani / Binding of Control serum Blood-bank to linear peptides of the protein M of SARS-CoV Urbani / Binding of Control serum LUMC to looped peptides of the protein M of SARS-CoV Urbani / Binding of Control Serum Blood-Bank to Looped peptides of the protein M of SARS-CoV Urbani: unit not given here
[2] = system: rabbit serum obtained by immunizing a rabbit with the SARS-CoV strain Frankfurt 1; assay type: binding; parameters: Binding of a rabbit serum to linear peptides / Binding of a rabbit serum to looped peptides / Rabbit serum linear peptides / Rabbit serum looped peptides / Binding of a rabbit serum to linear peptides of protein N of SARS-CoV Urbani (Rabbit serum linear peptides) / Binding of a rabbit serum to looped/cyclic peptides of protein N of SARS-CoV Urbani (Rabbit serum looped peptides): unit not given here
[3] = system: antibodies in sera from SARS patients (sera 1a, 1b, 2, 6, 37, 62, London, SARS-yellow, SARS-green); assay type: binding, human; parameters: Binding of serum 6 to linear peptides of protein X1 of SARS-CoV Urbani / Binding of serum 37 to linear peptides of protein X1 of SARS-CoV Urbani / Binding of serum 6 to looped/cyclic peptide (PEPSCAN-ELISA) / Binding of serum 37 to looped/cyclic peptide (PEPSCAN-ELISA) / Binding of serum 37 to looped/cyclic peptides of protein X1 of SARS-CoV Urbani / Binding of serum 6 to linear peptides of protein X2 / Binding of serum 37 to linear peptides of protein X2 / Binding of serum 37 to looped/cyclic peptides of protein X2 of SARS-CoV Urbani / Binding of serum 6 to linear peptides of protein M of SARS-CoV Urbani / Binding of serum 37 to linear peptides of protein M of SARS-CoV Urbani / Binding of serum 6 to looped/cyclic peptides of protein M of SARS-CoV Urbani / Binding of serum 37 to looped/cyclic peptides of protein M of SARS-CoV Urbani / Binding of serum 6 to linear peptides of protein X3 of SARS-CoV Urbani / Binding of serum 37 to linear peptides of protein X3 of SARS-CoV Urbani / Binding of serum 37 to looped/cyclic peptides of protein X3 of SARS-CoV Urbani / Binding of serum 6 to linear peptides of protein X4 of SARS-CoV Urbani / Binding of serum 37 to linear peptides of protein X4 of SARS-CoV Urbani / Binding of serum 37 to looped/cyclic peptides of protein X4 of SARS-CoV Urbani / Binding of serum 6 to linear peptides of protein X5 of SARS-CoV Urbani / Binding of serum 37 to linear peptides of protein X5 of SARS-CoV Urbani / Binding of serum 37 to looped/cyclic peptides of protein X5 of SARS-CoV Urbani / Binding of serum 6 to linear peptides of protein N of SARS-CoV Urbani / Binding of serum 37 to linear peptides of protein N of SARS-CoV Urbani / Binding of serum 6 to linear peptide (PEPSCAN-ELISA) / Binding of serum 1a to looped/cyclic peptides of protein N of SARS-CoV Urbani / Binding of serum 1b to looped/cyclic peptides of protein N of SARS-CoV Urbani / Binding of serum 2 to looped/cyclic peptides of protein N of SARS-CoV Urbani / Binding of serum 6 to looped/cyclic peptides of protein N of SARS-CoV Urbani / Binding of serum 37 to looped/cyclic peptides of protein N of SARS-CoV Urbani / Binding of serum 62 to looped/cyclic peptides of protein N of SARS-CoV Urbani / Binding of serum London to looped/cyclic peptides of protein N of SARS-CoV Urbani / Binding of serum SARS-green to looped/cyclic peptides of protein N of SARS-CoV Urbani: unit not given here

## RQEEVQQELYSPLFL
[1]
  Binding of Control Serum Blood-Bank to Looped peptides: 0.8
  Binding of Control serum Blood-bank to linear peptides: 0.7
  Binding of Control serum LUMC to linear peptides: 0.6
  Binding of Control serum LUMC to looped peptides: 0.9
[2]
  Rabbit serum linear peptides: 0.5
  Rabbit serum looped peptides: 0.6
[3]
  Binding of serum 1a to linear peptides of protein X4 of SARS-CoV Urbani: 0.8
  Binding of serum 1b to linear peptides of protein X4 of SARS-CoV Urbani: 0.6
  Binding of serum 2 to linear peptides of protein X4 of SARS-CoV Urbani: 0.5
  Binding of serum 6 to linear peptides of protein X4 of SARS-CoV Urbani: 0.5
  Binding of serum 37 to linear peptides of protein X4 of SARS-CoV Urbani: 0.8
  Binding of serum 62 to linear peptides of protein X4 of SARS-CoV Urbani: 0.8
  Binding of serum London to linear peptides of protein X4 of SARS-CoV Urbani: 0.7
  Binding of serum SARS-green to linear peptides of protein X4 of SARS-CoV Urbani: 0.7
  Binding of serum SARS-yellow to linear peptides of protein X4 of SARS-CoV Urbani: 0.7
  Recognition of the peptide by sera of SARS-CoV infected individuals, and form (linear, looped/cyclic) in which it is recognized: recognized in looped/cyclic form

## RRLLACLCKHKKVST
[1]
  Binding of Control Serum Blood-Bank to Looped peptides: 0.2
  Binding of Control serum Blood-bank to linear peptides: 0.9
  Binding of Control serum LUMC to linear peptides: 0.7
  Binding of Control serum LUMC to looped peptides: 0.3
[2]
  Binding of a rabbit serum to linear peptides: 0.6
  Binding of a rabbit serum to looped peptides: 0.3
[3]
  Binding of serum 1a to looped/cyclic peptides of protein X2 of SARS-CoV Urbani: 0.2
  Binding of serum 1b to looped/cyclic peptides of protein X2 of SARS-CoV Urbani: 0.1
  Binding of serum 2 to looped/cyclic peptides of protein X2 of SARS-CoV Urbani: 0.1
  Binding of serum 6 to looped/cyclic peptides of protein X2 of SARS-CoV Urbani: 0.2
  Binding of serum 37 to looped/cyclic peptides of protein X2 of SARS-CoV Urbani: 0.2
  Binding of serum 62 to looped/cyclic peptides of protein X2 of SARS-CoV Urbani: 0.4
  Binding of serum London to looped/cyclic peptides of protein X2 of SARS-CoV Urbani: 0.2
  Binding of serum SARS-green to looped/cyclic peptides of protein X2 of SARS-CoV Urbani: 0.2
  Binding of serum SARS-yellow to looped/cyclic peptides of protein X2 of SARS-CoV Urbani: 0.2
  Recognition of the peptide by sera of SARS-CoV infected individuals, and form (linear, looped/cyclic) in which it is recognized: recognized in linear form

## RRRLLACLCKHKKVS
[1]
  Binding of Control Serum Blood-Bank to Looped peptides: 0.3
  Binding of Control serum Blood-bank to linear peptides: 0.7
  Binding of Control serum LUMC to linear peptides: 0.6
  Binding of Control serum LUMC to looped peptides: 0.2
[2]
  Binding of a rabbit serum to linear peptides: 0.5
  Binding of a rabbit serum to looped peptides: 0.2
[3]
  Binding of serum 1a to looped/cyclic peptides of protein X2 of SARS-CoV Urbani: 0.2
  Binding of serum 1b to looped/cyclic peptides of protein X2 of SARS-CoV Urbani: 0.1
  Binding of serum 2 to looped/cyclic peptides of protein X2 of SARS-CoV Urbani: 0.0
  Binding of serum 6 to looped/cyclic peptides of protein X2 of SARS-CoV Urbani: 0.1
  Binding of serum 37 to looped/cyclic peptides of protein X2 of SARS-CoV Urbani: 0.2
  Binding of serum 62 to looped/cyclic peptides of protein X2 of SARS-CoV Urbani: 0.3
  Binding of serum London to looped/cyclic peptides of protein X2 of SARS-CoV Urbani: 0.1
  Binding of serum SARS-green to looped/cyclic peptides of protein X2 of SARS-CoV Urbani: 0.1
  Binding of serum SARS-yellow to looped/cyclic peptides of protein X2 of SARS-CoV Urbani: 0.1
  Recognition of the peptide by sera of SARS-CoV infected individuals, and form (linear, looped/cyclic) in which it is recognized: recognized in linear form

## RYRIGNYKLNTDHAG
[1]
  Binding of Control Serum Blood-Bank to Looped peptides of the protein M of SARS-CoV Urbani: 0.7
  Binding of Control serum Blood-bank to linear peptides of the protein M of SARS-CoV Urbani: 0.7
  Binding of Control serum LUMC to linear peptides of the protein M of SARS-CoV Urbani: 0.5
  Binding of Control serum LUMC to looped peptides of the protein M of SARS-CoV Urbani: 0.7
[2]
  Rabbit serum linear peptides: 0.1
  Rabbit serum looped peptides: 0.2
[3]
  Binding of serum 1a to linear peptides of protein M of SARS-CoV Urbani: 0.7
  Binding of serum 1a to looped/cyclic peptides of protein M of SARS-CoV Urbani: 0.7
  Binding of serum 1b to linear peptides of protein M of SARS-CoV Urbani: 0.5
  Binding of serum 1b to looped/cyclic peptides of protein M of SARS-CoV Urbani: 0.6
  Binding of serum 2 to linear peptides of protein M of SARS-CoV Urbani: 0.4
  Binding of serum 2 to looped/cyclic peptides of protein M of SARS-CoV Urbani: 0.6
  Binding of serum 6 to linear peptides of protein M of SARS-CoV Urbani: 0.2
  Binding of serum 6 to looped/cyclic peptides of protein M of SARS-CoV Urbani: 0.9
  Binding of serum 37 to linear peptides of protein M of SARS-CoV Urbani: 0.6
  Binding of serum 37 to looped/cyclic peptides of protein M of SARS-CoV Urbani: 0.6
  Binding of serum 62 to linear peptides of protein M of SARS-CoV Urbani: 0.5
  Binding of serum 62 to looped/cyclic peptides of protein M of SARS-CoV Urbani: 0.6
  Binding of serum London to linear peptides of protein M of SARS-CoV Urbani: 0.5
  Binding of serum London to looped/cyclic peptides of protein M of SARS-CoV Urbani: 0.4
  Binding of serum SARS-green to linear peptides of protein M of SARS-CoV Urbani: 0.4
  Binding of serum SARS-green to looped/cyclic peptides of protein M of SARS-CoV Urbani: 0.3
  Binding of serum SARS-yellow to linear peptides of protein M of SARS-CoV Urbani: 0.2
  Binding of serum SARS-yellow to looped/cyclic peptides of protein M of SARS-CoV Urbani: 0.8
